In patent US20250179176A1, “ANTI-TIGIT ANTIBODIES AND USES OF THE SAME” (ARCUS BIOSCIENCES, INC., priority 2022, published 2025):

Test system: metastatic (Stage IV) squamous or non-squamous NSCLC
Assay: Phase 2 study in front-line NSCLC (ARC-7), efficacy
Assay type: in vivo, human
Text: Participants were randomized 1:1:1 across the three study arms and treated until disease progression or loss of clinical benefit. […] Patients in the zimberelimab monotherapy arm with confirmed progression had the option to cross over to the triplet arm. Co-primary endpoints were objective response rate (ORR) and progression-free survival (PFS). Secondary endpoints included safety, duration of response and disease control rates. Additional assessments of response/on-treatment effects may include measures of immune cell activation, immune cell suppression, immune cell proliferation, T cell receptor dynamics, and/or increases in memory and antigen experienced T cells in periphery or tumor microenvironment, as well as molecular response assessment by ctDNA dynamics and/or changes in tumor cell markers or gene expression.
Further data were obtained from an interim analysis with a data cutoff of Aug. 31, 2022.

[1] = efficacy population, later cutoff

Substance: zimberelimab: antagonistic PD-1 antibody, immune checkpoint inhibitor
- patients with partial response remaining on treatment (ITT-13, cutoff Aug. 31, 2022): 5 n
- patients with stable disease remaining on treatment (ITT-13, cutoff Aug. 31, 2022): 3 n
- 6-month progression-free survival rate (Kaplan Meier, ITT-13): 43%
- median PFS (Kaplan Meier, ITT-13): 5.4 months
- 6-mo PFS % (95% CI) [1]: 43 (27, 59) %
- CORR (confirmed Objective Response Rate, per RECIST v1.1) [1]: 12 (27) n (%)
- Complete Response [1]: 0 (0) n (%)
- Not Evaluable [1]: 7 (16) n (%)
- Partial Response [1]: 12 (27) n (%)
- Progressive Disease [1]: 11 (25) n (%)
- Stable Disease [1]: 14 (32) n (%)
- median PFS [1]: 5.4 mo
